Type in all cases: cell-based
One assay relates to EGFR. The experiment in a line: Microsphere (Luminex) detection of tyrosine-phosphorylated EGFR in lysates of activated A431 cells. The note with it: for detection of tyrosine phosphorylated EGFR in lysates of activated cells: anti-EGFR coated microspheres, 4G10-biotin, streptavidin-R-phycoerythrin. How it is done:
A431 cells were grown to 80-90% confluency in T75 flasks. Cells were washed once with fresh media (37° C.). For treatment, sodium pervanadate was prepared as described above and diluted into DMEM to 1 mM final concentration. Two ml of 1 mM sodium pervanadate containing media, prewarmed to 37° C., was added per T75 flask and the cell monolayer was covered with it. Cells were incubated at 37° C. for 5 min. Activated cells were lysed and processed as described below.
For pathway specific activation of A431 cells, which overexpress the epidermal growth factor receptor (EGFR), the cells were treated with epidermal growth factor (EGF). Cells were grown to about 80-90% confluency in a T75 flask. The optimal concentration of EGF for activation of the EGFR pathway in A431 cells was determined to be 100 μM. EGF was diluted in DMEM containing 10% serum. Two ml of the diluted EGF (100 μM) was layered on top of the cell monolayer. Cells were incubated at 37° C. for 15 min for activation. Activated cells were lysed and processed as described below.
A431 cells were lysed by adding 1 ml of 1× lysis buffer (1% NP-40 and protease inhibitor cocktail in PBS), pre-chilled on ice, per T75 flask. Cells were removed by scraping with a cell scraper. Lysate was vortexed immediately after addition of lysis buffer and incubated on ice for 15 min. While incubating on ice, it was mixed by vortexing every 5 min. […]
After incubation with the lysate, liquid was drained from the bottom of plate, under vacuum, on a suction apparatus (Millipore Corporation) designed to fit these plates. […] Washed microspheres were resuspended in 100 μl of wash buffer per well and analyzed in the Luminex-100™ instrument, according to the manufacturer's instructions.
Later experiments focused on analyzing multiple proteins in another pathway simultaneously, as described below. (It will be evident that multiple proteins in the EGFR pathway or any other pathways or combinations thereof could similarly be analyzed simultaneously.)

Assay [1] deals with Zap70. The assay is described as follows: Immunoprecipitation and Western analysis with biotinylated 4G10, Jurkat lysates: Zap70. The conditions noted are these: Jurkat cell lysates, treated vs untreated; FIG. 3. How it is done:
(§1) To confirm that microspheres coated with antibodies to Lck, Zap70 and LAT captured predominantly specific proteins in cell lysates, immunoprecipitation was performed with these antibodies. Cell lysates (1×10^8 cells in 1 ml) were incubated with 2.5 μg of each antibody for 1 hr. The immune complexes were captured with Protein G conjugated sepharose (Sigma Chemicals, St. Louis, Mo.) and resolved by standard polyacrylamide gel electrophoresis (PAGE). Resolved proteins were transferred to PVDF membrane (BiORad, Hercules, Calif.) and probed with biotinylated 4G10 (1:2000 dilution in 5% non-fat powdered milk in PBS). Phosphorylated bands were finally detected by ABC Detection Reagent (Vector Laboratories, Burlingame, Calif.) and Chemiluminescent Substrate (Pierce). […] These phosphorylated proteins predominated in their respective immunoprecipitates.

Assay [2] concerns Lck. The experiment in a line: Five-plex microsphere (Luminex) assay of tyrosine phosphorylation in activated Jurkat T-cells: Lck. The conditions noted are these: lysate from pervanadate treated Jurkat cells, 37° C., 5 min; FIG. 2. On the procedure: (§2) Jurkat cells were resuspended to a density of 1×10^8 cells/ml in PBS. Cells were pre-warmed to 37° C. for 15 min. To each milliliter of cell suspension, 40 μl of sodium pervanadate was added. Cells were mixed and immediately incubated at 37° C. for 5 min. Activated cells were lysed, and cell lysates were processed as described below.
(§3) For pathway specific activation, Jurkat cells were treated with anti-CD3-receptor monoclonal antibody (UCHT1) (Becton Dickenson, San Diego, Calif.). Cells were resuspended in PBS at a density of 1×10^8/ml and prewarmed to 37° C. Anti-CD3 antibody was added to a final concentration of 5 μg/ml. Cells were mixed and incubated at 37° C. for various times ranging from 5 sec to 10 min. Optimal phosphorylation of most tyrosine kinases and their substrates in the T-cell receptor pathway occurred in 5 min.
(§4) Jurkat cells were lysed by adding a volume of 2× lysis buffer (2% NP-40 and protease inhibitor cocktail (both from Roche Diagnostics, Mannheim, Germany) in PBS), pre-chilled on ice, equal to the volume of the resuspended cells. […]
(§5) After incubation with the lysate, liquid was drained from the bottom of plate, under vacuum, on a suction apparatus (Millipore Corporation) designed to fit these plates. […] Washed microspheres were resuspended in 100 μl of wash buffer per well and analyzed in the Luminex-100™ instrument, according to the manufacturer's instructions. […]

Assay [3] relates to Lck. The assay is described as follows: Immunoprecipitation and Western analysis with biotinylated 4G10, Jurkat lysates: Lck. The note with it: Jurkat cell lysates, treated vs untreated; FIG. 3. On the procedure: as §1
Assay [4] relates to Zap70. The experiment in a line: Five-plex microsphere (Luminex) assay of tyrosine phosphorylation in activated Jurkat T-cells: Zap70. The conditions noted are these: lysate from pervanadate treated Jurkat cells, 37° C., 5 min; FIG. 2. On the procedure:
as §2, §3, §4, §5

In assay [5] the test system is LAT. The assay is described as follows: Immunoprecipitation and Western analysis with biotinylated 4G10, Jurkat lysates: LAT. The conditions noted are these: Jurkat cell lysates, treated vs untreated; FIG. 3. How it is done:
as §1

The test system of assay [6] is LAT. The assay is described as follows: Five-plex microsphere (Luminex) assay of tyrosine phosphorylation in activated Jurkat T-cells: LAT. The note with it: lysate from pervanadate treated Jurkat cells, 37° C., 5 min; FIG. 2. How it is done: as §2, §3, §4, §5

Results on two substances are retold here after patent US20040229284A1, “Multiplex analysis of proteins” (The Regents of the University of California, priority 2003, published 2004).

Turning to epidermal growth factor [EGF], the “optimal concentration of EGF for activation of the EGFR pathway” value in the assay on EGFR (37° C., 15 min) came out at 100 µM. Further, the “detection of tyrosine phosphorylated EGFR in lysates of activated cells” value in the assay on EGFR is listed as “could be detected”.

For sodium pervanadate, the “phosphorylated band of Zap70 in immunoprecipitate” value with Zap70 [1] is “detected only in lysates from cells treated with sodium pervanadate”. For the same substance, in the assay with Lck [2], the “fluorescent signal from streptavidin-phycoerythrin, anti-Lck coated microspheres” value was “strong fluorescent signal”. For the same substance, in the assay on Lck [3], the “phosphorylated band of Lck in immunoprecipitate” value is “detected only in lysates from cells treated with sodium pervanadate”. Also, in the assay with Zap70 [4], the “fluorescent signal from streptavidin-phycoerythrin, anti-Zap70 coated microspheres” value is on record as “strong fluorescent signal”. Further, the “phosphorylated band of LAT in immunoprecipitate” value in the assay with LAT [5] is recorded as “detected only in lysates from cells treated with sodium pervanadate”. For the same substance, the “fluorescent signal from streptavidin-phycoerythrin, anti-LAT coated microspheres” value in the assay on LAT [6] is recorded as “strong fluorescent signal”. Moreover, the “detection of tyrosine phosphorylated EGFR in lysates of activated cells” value in the assay on EGFR is “could be detected”.
